This passage reports Ki results from patent publication US9238619B2, “Phenalkylamine derivatives, pharmaceutical compositions containing them, and their use in therapy” (AbbVie Deutschland GmbH & Co. KG, priority 2010, dated 2016).

Sequence of human GlyT1c transporter (P48067 whole entry): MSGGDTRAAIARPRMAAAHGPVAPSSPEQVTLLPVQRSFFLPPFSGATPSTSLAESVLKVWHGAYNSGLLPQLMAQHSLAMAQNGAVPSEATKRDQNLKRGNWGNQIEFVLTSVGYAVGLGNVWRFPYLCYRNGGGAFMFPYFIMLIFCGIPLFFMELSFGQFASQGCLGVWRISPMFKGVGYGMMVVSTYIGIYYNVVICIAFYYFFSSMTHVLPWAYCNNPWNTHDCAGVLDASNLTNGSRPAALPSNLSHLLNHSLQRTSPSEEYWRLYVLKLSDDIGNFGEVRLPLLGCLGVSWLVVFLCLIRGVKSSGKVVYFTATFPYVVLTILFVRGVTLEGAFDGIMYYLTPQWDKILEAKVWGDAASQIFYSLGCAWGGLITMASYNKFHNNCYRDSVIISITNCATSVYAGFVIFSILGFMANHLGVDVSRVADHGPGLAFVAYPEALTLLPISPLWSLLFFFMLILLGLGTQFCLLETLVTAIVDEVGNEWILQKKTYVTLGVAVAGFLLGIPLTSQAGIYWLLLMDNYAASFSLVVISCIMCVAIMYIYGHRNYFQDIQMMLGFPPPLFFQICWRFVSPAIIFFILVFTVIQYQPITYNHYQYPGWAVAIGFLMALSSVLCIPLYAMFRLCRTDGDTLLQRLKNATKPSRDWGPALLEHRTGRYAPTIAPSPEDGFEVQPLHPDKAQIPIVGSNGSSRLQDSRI

The assay addresses human GlyT1c transporter (Homo sapiens (Human), UniProt P48067). Briefly: Radioligand binding assays using recombinant CHO cell membranes expressing human GlyT1. The settings on record: read-out: radioligand binding Kiapp. On the procedure:
Radioligand binding to human GlyT1c transporter-expressing membranes was determined as described in Mezler et al., Molecular Pharmacology 74:1705-1715, 2008.
Turning to `Cn1cnc(S(=O)(=O)NCCOc2cccc(C3(Cc4ccccc4)CNC3)c2)c1` [Example 51, 1-Methyl-1H-imidazole-4-sulfonic acid {2-[3-(3-benzyl-azetidin-3-yl)phenoxy]-ethyl}-amide], the Ki is at most 100 nM. For the compound `CN1CC(Cc2ccccc2)(c2ccc(F)c(OCCNS(=O)(=O)c3cn(C)cn3)c2)C1` [Example 52, 1-Methyl-1H-imidazole-4-sulfonic acid {2-[5-(3-benzyl-1-methyl-azetidin-3-yl)-2-fluoro-phenoxy]-ethyl}-amide], the Ki is at most 100 nM. Under `CN1CC(Cc2ccccc2)(c2ccc(F)c(OCCN(C)S(=O)(=O)c3cn(C)cn3)c2)C1` [Example 53, 1-Methyl-1H-imidazole-4-sulfonic acid {2-[5-(3-benzyl-1-methyl-azetidin-3-yl)-2-fluoro-phenoxy]-ethyl}-methyl-amide] stands at most 1000 nM.

On to `Cn1cnc(S(=O)(=O)NCCOc2cccc(C3(Cc4ccccc4)CN(CC(F)(F)F)C3)c2)c1` [Example 54, 1-Methyl-1H-imidazole-4-sulfonic acid (2-{3-[3-benzyl-1-(2,2,2-trifluoro-ethyl)azetidin-3-yl]-phenoxy}-ethyl)-amide], for which the Ki was at most 1000 nM. For `Cn1cnc(S(=O)(=O)NCCOc2cccc(C3(Cc4ccccc4)CN(CC(F)F)C3)c2)c1` [Example 55, 1-Methyl-1H-imidazole-4-sulfonic acid (2-{3-[3-benzyl-1-(2,2-difluoro-ethyl)azetidin-3-yl]-phenoxy}-ethyl)-amide], the Ki is at most 1000 nM. On to `Cn1cnc(S(=O)(=O)NCCOc2cccc(C3(Cc4ccccc4)CNC(=O)C3)c2)c1` (stereo not drawn) [Example 56, 1-Methyl-1H-imidazole-4-sulfonic acid {2-[3-(3-benzyl-5-oxo-pyrrolidin-3-yl)-phenoxy]-ethyl}-amide], for which the Ki was at most 1000 nM. For the compound `O=C1CC(Cc2ccccc2)(c2cccc(OCCNS(=O)(=O)CC3CC3)c2)CN1` (stereo not drawn) [Example 57, N-{2-[3-(3-Benzyl-5-oxo-pyrrolidin-3-yl)-phenoxy]-ethyl}-C-cyclopropyl-methanesulfonamide], the Ki was at most 10000 nM. Take `Cn1cc(S(=O)(=O)NCCOc2cccc(C3(Cc4ccccc4)CNC(=O)C3)c2)cn1` (stereo not drawn) [Example 58, 1-Methyl-1H-pyrazole-4-sulfonic acid {2-[3-(3-benzyl-5-oxo-pyrrolidin-3-yl)phenoxy]-ethyl}-amide]: the Ki was at most 1000 nM. Under `O=S(=O)(CC1CC1)NCCOc1cccc(C2(Cc3ccccc3)CCNC2)c1` (stereo not drawn) [Example 59, N-{2-[3-(3-Benzyl-pyrrolidin-3-yl)-phenoxy]-ethyl}-C-cyclopropyl-methanesulfonamide] stands at most 100 nM; under `Cn1cc(S(=O)(=O)NCCOc2cccc(C3(Cc4ccccc4)CCNC3)c2)cn1` (stereo not drawn) [Example 60, 1-Methyl-1H-pyrazole-4-sulfonic acid {2-[3-(3-benzyl-pyrrolidin-3-yl)phenoxy]-ethyl}-amide], at most 100 nM; under `Cn1cnc(S(=O)(=O)NCCOc2cccc(C3(Cc4ccccc4)CCNC3)c2)c1` (stereo not drawn) [Example 61, 1-Methyl-1H-imidazole-4-sulfonic acid {2-[3-(3-benzyl-pyrrolidin-3-yl)phenoxy]-ethyl}-amide], at most 100 nM. With `CN1CCCC(Cc2ccccc2)(c2cccc(OCCNS(=O)(=O)c3cn(C)cn3)c2)C1` (stereo not drawn) [Example 62, 1-Methyl-1H-imidazole-4-sulfonic acid {2-[3-(3-benzyl-1-methyl-piperidin-3-yl)-phenoxy]-ethyl}-amide], the Ki was at most 100 nM. For `CN1CCCC(Cc2ccccc2)(c2cccc(OCCNS(=O)(=O)c3cnn(C)c3)c2)C1` (stereo not drawn) [Example 63, 1-Methyl-1H-pyrazole-4-sulfonic acid {2-[3-(3-benzyl-1-methyl-piperidin-3-yl)phenoxy]-ethyl}-amide] the value was at most 100 nM; for `CN1CCCC(Cc2ccccc2)(c2cccc(OCCNS(=O)(=O)CC3CC3)c2)C1` (stereo not drawn) [Example 64, N-{2-[3-(3-Benzyl-1-methyl-piperidin-3-yl)-phenoxy]-ethyl}-C-cyclopropyl-methanesulfonamide], at most 10000 nM; for `Cn1cc(S(=O)(=O)NCc2cccc(C3(Cc4ccccc4)CNC(=O)C3)c2)cn1` (stereo not drawn) [Example 66, 1-Methyl-1H-pyrazole-4-sulfonic acid 3-(3-benzyl-5-oxo-pyrrolidin-3-yl)benzylamide], at most 10000 nM.

As for `Cn1cc(S(=O)(=O)NCc2cccc(C3(Cc4ccccc4)CCNC3)c2)cn1` (stereo not drawn) [Example 67, 1-Methyl-1H-pyrazole-4-sulfonic acid 3-(3-benzyl-pyrrolidin-3-yl)benzylamide], the Ki is at most 100 nM. On to `O=S(=O)(CC1CC1)NCc1cccc(C2(Cc3ccccc3)CCNC2)c1` (stereo not drawn) [Example 68, N-[3-(3-Benzyl-pyrrolidin-3-yl)-benzyl]-C-cyclopropyl-methanesulfonamide], for which the Ki was at most 1000 nM. Consider `CN1CCC(Cc2ccccc2)(c2cccc(CNS(=O)(=O)c3cnn(C)c3)c2)C1` (stereo not drawn) [Example 69, 1-Methyl-1H-pyrazole-4-sulfonic acid 3-(3-benzyl-1-methyl-pyrrolidin-3-yl)-benzylamide], for which the Ki is at most 1000 nM. Under `CN1CCC(Cc2ccccc2)(c2cccc(OCCNS(=O)(=O)c3cn(C)cn3)c2)C1` (stereo not drawn) [Example 70, 1-Methyl-1H-imidazole-4-sulfonic acid {2-[3-(3-benzyl-1-methyl-pyrrolidin-3-yl)-phenoxy]-ethyl}-amide] stands at most 100 nM; under `Cn1cnc(S(=O)(=O)NCCOc2cccc(C3(Cc4ccccc4)CCN(C(=O)C(F)F)C3)c2)c1` (stereo not drawn) [Example 71, 1-Methyl-1H-imidazole-4-sulfonic acid (2-{3-[3-benzyl-1-(2,2-difluoro-acetyl)pyrrolidin-3-yl]-phenoxy}-ethyl)-amide], at most 1000 nM; under `Cn1cnc(S(=O)(=O)NCCOc2cccc(C3(Cc4ccccc4)CN(CCF)C3)c2)c1` [Example 72, 1-Methyl-1H-imidazole-4-sulfonic acid (2-{3-[3-benzyl-1-(2-fluoro-ethyl)azetidin-3-yl]-phenoxy}-ethyl)-amide], at most 100 nM. For `COCCN1CC(Cc2ccccc2)(c2cccc(OCCNS(=O)(=O)c3cn(C)cn3)c2)C1` [Example 73, 1-Methyl-1H-imidazole-4-sulfonic acid (2-{3-[3-benzyl-1-(2-methoxy-ethyl)azetidin-3-yl]-phenoxy}-ethyl)-amide] the value was at most 100 nM. Regarding `CN1CCC(Cc2ccccc2)(c2cccc(OCCN(C)S(=O)(=O)c3cn(C)cn3)c2)C1` (stereo not drawn) [Example 74, 1-Methyl-1H-imidazole-4-sulfonic acid {2-[3-(3-benzyl-1-methyl-pyrrolidin-3-yl)-phenoxy]-ethyl}-methyl-amide], the Ki was at most 1000 nM. For `Cn1cnc(S(=O)(=O)NCCOc2cccc(C3(Cc4ccccc4)CCN(CCF)C3)c2)c1` (stereo not drawn) [Example 75], the Ki was at most 100 nM. For `Cn1cnc(S(=O)(=O)NCCOc2cccc(C3(Cc4ccccc4)CCN(CC(C)(C)C)C3)c2)c1` (stereo not drawn) [Example 76, 1-Methyl-1H-imidazole-4-sulfonic acid (2-{3-[3-benzyl-1-(2,2-dimethylpropyl)-pyrrolidin-3-yl]-phenoxy}-ethyl)-amide], the Ki is at most 100 nM. Under `CC(C)N1CCC(Cc2ccccc2)(c2cccc(OCCNS(=O)(=O)c3cn(C)cn3)c2)C1` (stereo not drawn) [Example 77, 1-Methyl-1H-imidazole-4-sulfonic acid {2-[3-(3-benzyl-1-isopropyl-pyrrolidin-3-yl)-phenoxy]-ethyl}-amide] stands at most 1000 nM; under `CN1CC(Cc2ccccc2)(c2cccc(OCCNS(=O)(=O)c3cn(C)cn3)c2)C1` [Example 78, 1-Methyl-1H-imidazole-4-sulfonic acid {2-[3-(3-benzyl-1-methyl-azetidin-3-yl)phenoxy]-ethyl}-amide], at most 100 nM.
